Data on two compounds can be found in US9952300B2, “Dynamic contrast enhanced MRI method and agents for the assessment of the macromolecular transport within pathologic tissues” (BRACCO IMAGING S.P.A., priority 2012, dated 2018).

One series addresses Human Serum Albumin (Homo sapiens, UniProt P02768). In words: Binding (%) of the paramagnetic complex to human serum proteins/albumin by centrifugal ultrafiltration. More on the design: purchased Nycomed Phama; host or cells: Seronorm Human, reconstituted (lyophilised) human serum. It counts as in vitro ADME. An excerpt:
Preferred albumin binding agents according to the invention include paramagnetic contrast agents having molecular weight lower than 5,000 Da, preferably lower that 3,000 Da and, more preferably, comprised from 800 to 3,000 Da, that further display an in-vivo non-covalent protein binding with the Human Serum Albumin (or HSA, or albumin, as herein used interchangeably) equal to or higher that 85%, preferably higher than 90% and, more preferably, higher than 95%, expressed in terms of % of the agent amount that is non-covalently bound to serum albumin, measured by centrifugal ultrafiltration (Centrifree®) from a 0.5 mM solution of the agent in Seronorm® incubated at 37° C., according to the procedure disclosed, for instance, in Invest.Radiol. 2006, 41: 279-291; Whitlam J B, Brown K F. Ultrafiltration in serum protein binding determinations. J.Pharm.Sci. 1981; 70:146-150, and in the Example 2 of the Experimental section.
The binding (%) has been determined by with the method of the centrifugal ultrafiltration as described in: Whitlam J B, Brown K F Ultrafiltration in serum protein binding determination. J. Pharm Sci. 1981; 70:146-150; Bowers W F, Fulton S, thompson J. Ultrafiltration vs equilibrium dialysis for determination of free fraction. […]
The albumin serum protein binding was analysed in a human serum solution (Seronorm Human, Nycomed Phama) where each complex was added at a concentration of Gd(III) ion of 0.5 mM. […] The percent of Gd(III)-complex bound (% B) was determined by equation: % B=[(Ct−Cf)/Ct]*100 where Ct is the total amount of Gd(III) in the incubated solution and Cf is the free Gd(III) complex found in the permeate solution. The average bound fraction was assessed from ultrafiltration experiments carried out in triplicate. […]
The above solution (0.300 mL) was added to 15 mL of reconstituted human serum. […] The protein free permeate solution (0.4 mL) was collected and Cf was measured by ICP-MS analysis. […]
From obtained Cf values the percent of bound Gd-complex was determined by application of the following equation % B=[(Ct−Cf)/Ct]*100 where Ct is 0.460 mM (S.D.: 0.015). […]

Series [1] concerns A431 human epidermoid carcinoma xenografts. In words: Fluorescence microscopy of Cy5-CTX distribution in A431 xenografts after PTX or vehicle (Example 5). It counts as in vivo, NCR athymic nude mice. As for the experimental part: Cy5-CTX: The fluorescently labeled monoclonal Antibody (mAb) was prepared in house, by conjugating the monoclonal antibody (3.51 mg/mL in citrate-TEA buffer, obtained by buffer exchange from the commercial glycine solution of the mAb) with the commercially available fluorescent cyanine Cy5-NHS ester by using typical and well experienced procedures known in the art. Molar ratio dye/mAb in the conjugated product=2. Albumin-Fluoresceinisothiocyanate: (Albumin-FITC, by Sigma-Aldrich, 10 mg/mL solution). Optical Imaging Protocol […]
Forty-five histological images were acquired, corresponding to approximately 3 sections per tumor. Each image consisted in a stack of two channels corresponding to the fluorescence signal obtained from the dye Cyanine 5 (Cy5) and Fluorescein isothiocyanate (FITC).
The spatial distribution of the Cy5-CTX staining was analyzed calculating for each pixel its distance from the nearest vessel wall using FITC-Alb images (Distance Map FIG. 9 panel c). In the corresponding Cy5-CTX image, the Cy5-CTX signal was then expressed as a function of the pixel distance from the vessel wall (CTX decay curve). […]
Fluorescent CTX decay curves were measured for each tumor section acquired by fluorescence microscopy over distances ranging from 0 to about 700 μm from the nearest vessel wall. […]

Values joined by “and” are separate entries in the source; they are usually repeats but may differ in a detail not shown here. Identical values can stand only once.

Chain of Human Serum Albumin (P02768 25-609): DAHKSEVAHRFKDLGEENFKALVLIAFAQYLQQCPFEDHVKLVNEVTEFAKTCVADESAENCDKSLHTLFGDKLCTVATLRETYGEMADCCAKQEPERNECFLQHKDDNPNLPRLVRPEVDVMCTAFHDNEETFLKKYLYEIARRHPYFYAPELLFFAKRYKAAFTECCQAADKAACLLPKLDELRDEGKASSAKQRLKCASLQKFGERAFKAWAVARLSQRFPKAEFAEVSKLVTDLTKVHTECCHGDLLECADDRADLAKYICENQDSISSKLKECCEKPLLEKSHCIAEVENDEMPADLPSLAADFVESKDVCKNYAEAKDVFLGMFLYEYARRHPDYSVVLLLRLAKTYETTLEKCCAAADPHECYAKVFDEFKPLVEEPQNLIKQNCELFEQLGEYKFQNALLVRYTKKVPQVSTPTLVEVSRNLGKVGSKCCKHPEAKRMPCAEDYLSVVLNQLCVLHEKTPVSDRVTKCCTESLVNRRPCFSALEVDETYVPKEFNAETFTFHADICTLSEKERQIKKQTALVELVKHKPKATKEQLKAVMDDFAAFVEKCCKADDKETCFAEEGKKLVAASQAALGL

Take `C[C@H](CCC(=O)[O-])[C@H]1CC[C@H]2[C@@H]3CC[C@@H]4C[C@@H](NC(=O)CC[C@@H](C(=O)[O-])N(CCN(CC(=O)[O-])CC(=O)[O-])CCN(CC(=O)[O-])CC(=O)[O-])CC[C@]4(C)[C@H]3C[C@H](O)[C@]12C.[Gd+3].[Na+].[Na+].[Na+]` [B22956/1, Gadocoletic acid trisodium salt]: the “Average Gd(III), Cf (free Gd(III) complex in the permeate solution)” value on Human Serum Albumin (0.5 mM Gd(III) complex in Seronorm human serum, 10 min at 37° C., 30 KDa MWCO ultrafiltration, per permeate A, B, C, trisodium salt) was 0.016 mM and 0.011 mM and 0.012 mM. Moreover, on Human Serum Albumin (0.5 mM complex in human serum, 37° C., average of triplicate), the “% B, Average” value came to 97.19%. Moreover, the “% B (percent of Gd(III)-complex bound to serum proteins)” value at Human Serum Albumin (0.5 mM complex in human serum, 37° C., single ultrafiltrations, trisodium salt) is 96.52% and 97.65% and 97.39%.
Take `CC(=O)O[C@H]1C(=O)[C@@]2(C)[C@H]([C@H](OC(=O)c3ccccc3)[C@]3(O)C[C@H](OC(=O)[C@H](O)[C@@H](NC(=O)c4ccccc4)c4ccccc4)C(C)=C1C3(C)C)[C@]1(OC(C)=O)CO[C@@H]1C[C@@H]2O` [PTX, Paclitaxel]: the “Cy5-CTX fluorescence (fAUC), treated versus untreated tumors” value in series [1] (between 400 and about 700 μm from the nearest vessel wall) is listed as “higher fluorescence”. Besides, the “Cy5-CTX fAUC, treated versus untreated tumors” value in series [1] (whole tested range from 0 to 700 μm) is “No differences”.
